Experiments:
UCHL1 = target: T1, UCHL1 (Homo sapiens, UniProt P09936); assay: DUB IC50 UCHL1; assay type: biochemical
T1 sequence (P09936 1-223): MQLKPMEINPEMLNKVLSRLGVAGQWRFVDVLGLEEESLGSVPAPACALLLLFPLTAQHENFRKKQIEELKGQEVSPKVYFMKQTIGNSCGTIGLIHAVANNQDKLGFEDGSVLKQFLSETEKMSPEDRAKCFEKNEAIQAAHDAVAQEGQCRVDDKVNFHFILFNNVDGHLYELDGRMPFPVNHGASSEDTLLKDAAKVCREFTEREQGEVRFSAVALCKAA

Cathepsin K = Cathepsin K (Homo sapiens, UniProt P43235); assay: Cathepsin IC50, Cathepsin K; assay type: biochemical
Cathepsin S = Cathepsin S (Homo sapiens, UniProt P25774); assay: Cathepsin IC50, Cathepsin S; assay type: biochemical
Sequence of Cathepsin S (P25774 115-331, species assumed): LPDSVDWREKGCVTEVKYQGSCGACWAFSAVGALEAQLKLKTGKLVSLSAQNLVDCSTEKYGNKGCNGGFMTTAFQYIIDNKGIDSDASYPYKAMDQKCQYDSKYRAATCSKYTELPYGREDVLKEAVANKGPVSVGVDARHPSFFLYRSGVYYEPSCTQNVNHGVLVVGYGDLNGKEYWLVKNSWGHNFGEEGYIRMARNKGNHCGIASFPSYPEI

[1] = tested on: Eurofins CEREP SafetyScreen44 panel; assay: Eurofins CEREP SafetyScreen44 panel profiling; assay type: binding; conditions: single concentration of 10 μM; for Example 2 all targets except 5-HT2b
Excerpt: Aside from selectivity over other DUB enzymes, it is important for a drug to have low affinity for other targets, and pharmacological profiling may be performed against panels of targets to assess the potential for, and to minimise, potential off-target effects. Examples of targets for which the compounds of the present invention may be screened against are those of the industry standard Eurofins-Cerep SafetyScreen44 panel, which includes 44 targets as a representative selection of GPCR receptors, transporters, ion channels, nuclear receptors, and kinase and non-kinase enzymes. Preferably, compounds of the invention have insignificant affinity against targets of this screening panel. Further examples of targets for which the compounds of the present invention may be screened against are kinases of the Thermo Fisher SelectScreen kinase profiling panel, which includes 39 targets as a representative selection of kinase enzymes. Preferably, compounds of the invention have insignificant affinity against targets of this screening panel. Additionally, examples of a particular enzyme class for which the compounds of the present invention may be screened against are the cathepsins (e.g. cathepsin A, B, C, H, K, L, L2, S, V and Z). Preferably, compounds of the invention have good selectivity for USP30 over one or more of these enzymes. […]

hERG potassium channel = target: T2, hERG potassium channel (Homo sapiens, UniProt Q12809); assay: hERG potassium channel in stably expressed CHO cells; assay type: cell-based; conditions: for IC50: 0.01 to 30 μM, n=3; for inhibition at 30 µM: human, CHO cells stably expressing hERG, read-out: inhibition of the hERG current amplitude
T2 construct: expressed in transfected cells
T2 sequence (Q12809 whole entry): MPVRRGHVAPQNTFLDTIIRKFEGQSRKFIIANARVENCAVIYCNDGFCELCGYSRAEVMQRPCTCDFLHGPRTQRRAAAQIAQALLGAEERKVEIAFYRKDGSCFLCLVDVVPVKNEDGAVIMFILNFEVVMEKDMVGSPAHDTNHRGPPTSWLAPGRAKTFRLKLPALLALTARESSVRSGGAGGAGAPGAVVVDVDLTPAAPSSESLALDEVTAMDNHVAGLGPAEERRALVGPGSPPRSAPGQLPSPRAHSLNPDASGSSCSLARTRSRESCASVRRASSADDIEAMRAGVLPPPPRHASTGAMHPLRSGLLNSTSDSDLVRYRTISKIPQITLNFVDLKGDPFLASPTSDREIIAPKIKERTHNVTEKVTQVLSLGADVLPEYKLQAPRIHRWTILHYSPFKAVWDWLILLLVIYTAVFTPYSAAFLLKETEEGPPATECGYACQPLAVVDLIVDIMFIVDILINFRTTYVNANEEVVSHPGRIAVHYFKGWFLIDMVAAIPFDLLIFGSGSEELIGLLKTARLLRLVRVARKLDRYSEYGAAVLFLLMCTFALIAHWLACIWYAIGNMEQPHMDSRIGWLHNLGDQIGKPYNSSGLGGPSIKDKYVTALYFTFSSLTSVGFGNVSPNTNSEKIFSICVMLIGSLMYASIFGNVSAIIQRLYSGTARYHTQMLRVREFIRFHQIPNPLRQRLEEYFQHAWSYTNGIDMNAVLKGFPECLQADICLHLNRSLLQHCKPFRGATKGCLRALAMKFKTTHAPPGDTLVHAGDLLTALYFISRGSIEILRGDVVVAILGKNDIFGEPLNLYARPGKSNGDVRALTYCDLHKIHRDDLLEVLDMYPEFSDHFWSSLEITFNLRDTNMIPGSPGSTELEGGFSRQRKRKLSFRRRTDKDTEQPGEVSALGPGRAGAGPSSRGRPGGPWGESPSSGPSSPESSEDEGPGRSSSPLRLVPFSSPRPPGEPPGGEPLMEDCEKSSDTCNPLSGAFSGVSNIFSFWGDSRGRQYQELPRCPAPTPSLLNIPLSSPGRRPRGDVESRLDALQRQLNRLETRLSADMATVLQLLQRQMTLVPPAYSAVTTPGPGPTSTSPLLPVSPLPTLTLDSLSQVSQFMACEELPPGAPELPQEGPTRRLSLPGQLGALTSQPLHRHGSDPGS
Description: The hERG predictor assay provides valuable information about the possible binding of test compounds to the potassium channel and potential QT prolongation on […]. Inhibition of the hERG current causes QT interval prolongation resulting in potentially fatal ventricular tachyarrhythmia (Torsades de Pointes). Typically, assay data may be generated from an automated patch-clamp assay platform.
Example 1 was evaluated for effects on the hERG potassium channel, in stably expressed CHO cells at concentrations between 0.01 and 30 μM.
Example 2 was evaluated for effects on the hERG potassium channel, in stably expressed CHO cells at concentrations between 0.01 and 30 μM.

[2] = tested on: HCT116 human colorectal carcinoma cells; assay: In vitro cytotoxicity (Cell Tox), alamarBlue; assay type: cell-based; conditions: HCT-116, 96-hour continual compound exposure
Description: In Vitro Cytotoxicity (Cell Tox): Measured in HCT116 human colorectal carcinoma cells using alamarBlue™ as the assay endpoint. Compound cytotoxicity was measured over a period of 96-hour continual compound exposure.

Log D measurement = assay type: physicochemical; conditions: pH 7.4; read-out: Log D measured at pH 7.4
Excerpt: (§1) log P: partition coefficient; lipophilicity measurement. log D: distribution co-efficient; lipophilicity measurement. TPSA: topological polar surface area. Turbidimetric solubility: Test compound solution prepared in DMSO diluted into aqueous buffer. Turbidimetry is used as the end-point by measuring absorbance at 620 nm. FaSSIF: simulated intestinal fluid in fasted state measured at pH 6.5. Hep Cl mouse: in vitro hepatocyte clearance in mouse cells. Hep Cl human: in vitro hepatocyte clearance in human cells. Plasma fu,p: The free fraction of a compound in plasma preparation determined by in vitro equilibrium dialysis. It is understood that only unbound (free) compound is capable of engaging with the target. Brain fu,br: The free fraction of a compound in brain homogenate preparation determined by in vitro equilibrium dialysis. It is understood that only unbound (free) compound is capable of engaging with the target. Clu: in vitro clearance. Clu as defined here is the scaled clearance, in turn calculated from the intrinsic clearance. The intrinsic clearance is the predicted clearance due to hepatic metabolic reactions, determined from incubation of a compound in a hepatocyte preparation. […] Cl in vivo clearance: Pharmacokinetic measurement of the volume of plasma (or any matrix) from which a substance is completely removed per unit time.

FaSSIF solubility = assay type: physicochemical; conditions: pH 6.5, simulated intestinal fluid in fasted state
Excerpt: as §1

[3] = tested on: P-glycoprotein (MDR1), human; assay: MDR1-MDCK flux assay; assay type: in vitro ADME; conditions: dog; for Papp A→B: value in brackets
Excerpt: The treatment of CNS disorders, including Alzheimer's disease, Parkinson's disease, and other disorders described herein, requires drug molecules to target the brain, which requires adequate penetration of the blood brain barrier. […] The probability that a compound can cross the blood brain barrier may be measured by an in vitro flux assay utilizing a MDR1-MDCK cell monolayer (Madin-Darby Canine Kidney cells transfected with MDR-1 resulting in overexpression of the human efflux transporter P-glycoprotein). Additionally, exposure may also be measured directly in brain and plasma using in vivo animal models.
MDR1-MDCK (Madin-Darby Canine Kidney cell monolayer) (in vitro) flux assay. Cell TE WB: USP30 endogenous cellular target engagement western blot (WB) assay. Assays the activity of compounds against USP30 in cells using an irreversible activity probe to monitor USP30 activity. TE ex vivo: USP30 kidney tissue target engagement assay. Kp u,u is the ratio of unbound drug in brain to unbound drug in plasma and may be indicative of potential for treating peripheral and/or CNS indications.

TOM20 ubiquitylation = assay: TOM20-ubiquitylation assay; assay type: cell-based, human; conditions: antimycin A/oligomycin mitophagy trigger
Excerpt: Human cell lines can be challenged with mitochondrial depolarizing agents (ionophores (eg. CCCP, valinomycin), mitochondrial complex inhibitors (oligomycin, antimycin A)) to induce ubiquitylation of TOM20, which is then further promoted in the presence of USP30 inhibitors. TOM20 ubiquitylation is subsequently assessed through western blotting of the cell lysates, with TOM20 ubiquitylation adduct detection possible due to an 8 kDa molecule weight increase for each molecule of ubiquitin added, resulting in laddering of a TOM20 immunoreactive band. TOM20-ubiquitylation levels can be quantified using chemiluminescence densitometry of laddered immunoreactive bands.

Sequence of Cathepsin K (P43235 115-329, species assumed): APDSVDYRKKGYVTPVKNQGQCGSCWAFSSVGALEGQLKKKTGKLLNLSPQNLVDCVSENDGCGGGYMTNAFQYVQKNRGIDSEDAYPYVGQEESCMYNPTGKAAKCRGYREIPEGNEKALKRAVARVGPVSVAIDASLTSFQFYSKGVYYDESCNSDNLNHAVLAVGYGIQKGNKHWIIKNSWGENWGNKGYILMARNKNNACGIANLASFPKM

| SMILES | DUB selectivity preference for USP30 v UCHL1 (UCHL1) | IC50 (UCHL1) [µM] | IC50 (Cathepsin K) [µM] | IC50 (Cathepsin S) [µM] | inhibition of binding or enzyme activity against all targets in the panel [1] | IC50 (hERG potassium channel) [µM] | inhibition at 30 µM (hERG potassium channel) [%] | EC50 [2] [µM] | logD (Log D measurement) | FaSSIF (μM) measured at pH 6.5 (FaSSIF solubility) [μM] | efflux ratio [3] | Papp A→B [3] [nm/s] | TOM20-Ub 1.5-fold gain EC1.5x (μM) (TOM20 ubiquitylation) |
| --- | --- | --- | --- | --- | --- | --- | --- | --- | --- | --- | --- | --- | --- |
| COC[C@@H]1C[C@@H](NC(=O)c2ncc(-c3cccc(OC(F)(F)F)c3)o2)CN1C#N [Example 1, N-((3R,5S)-1-Cyano-5-(methoxymethyl)pyrrolidin-3-yl)-5-(3-(trifluoromethoxy)phenyl)oxazole-2-carboxamide] | 60000 | > 300 | 16.5 | 158 | less than 20% | 34.3 | 44.3 | > 30 | 2.9 | 89 | 5.4 | 180 | 0.011 (n = 6) μM |
| C[C@@H]1C[C@@H](NC(=O)c2ncc(-c3cccc(OC(F)(F)F)c3)o2)CN1C#N [Example 2, N-((3R,5R)-1-Cyano-5-methylpyrrolidin-3-yl)-5-(3-(trifluoromethoxy)phenyl)oxazole-2-carboxamide] | 20000 | > 100 | 9.8 | > 30 | less than 20% | 24.7 | 54.3 | 24 | 3.4 | 25 | 1.9 | 120 | 0.009 (n = 4) μM |

Source: US20230119013A1, “N-CYANOPYRROLIDINES WITH ACTIVITY AS USP30 INHIBITORS” (MISSION THERAPEUTICS LIMITED, priority 2020, published 2023)
